From US9809602B2, “Compounds for treating viral infections” (INSTITUT PASTEUR KOREA, priority 2014, dated 2017)

tested on: genotype 1/2 chimeric cell culture derived HCV (HCVcc); assay: Genotype 1/2 chimeric HCVcc assay (nano-luciferase, HCV replication); format: cell-based; conditions: Hepatitis C virus
Summary of the method: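 EC50 (replication, nano-luciferase) and CC50 (viability, cellular ATP) were determined by non-linear regression 72 h after infection with a reporter HCVcc chimera carrying genotype 1a structural and 2a JFH-1 non-structural proteins. Compound was applied to Huh-7.5 cells 2 h before inoculation.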

| Compound | EC50 |
| --- | --- |
| O=C(NCCCN1CCC(N2CCCCC2)CC1)c1ccc(-c2ccc(Cl)cc2C(F)(F)F)cc1 [Compound 1136] | 100 to 1000 nM |
| O=C(NCCCN1CCC(N2CCCCC2)CC1)c1ccc(-c2ccc(N3CCOCC3)cc2)cc1 [Compound 1123] | 100 to 1000 nM |
| COc1ccc(Oc2ccc(C(=O)NCCCN3CCC(N4CCCCC4)CC3)cc2)cc1 [Compound 1032] | 100 to 1000 nM |
| COc1ccc(-c2ccc(C(=O)NCCCN3CCC(N4CCCCC4)CC3)cc2)cc1 [Compound 1022] | < 100 nM |
| O=C(NCCCN1CCC(N2CCCCC2)CC1)c1ccc(-c2ccc(Cl)cc2)cc1 [Compound 1021] | 100 to 1000 nM |
| CC(C)(C)OC(=O)N1CCC(C2CCN(CCCNC(=O)c3ccc(Oc4ccccc4)cc3)CC2)CC1 [Compound 1073] | 100 to 1000 nM |
| O=C(NCCCN1CCC(Nc2ccccc2)CC1)c1ccc(Oc2ccccc2)cc1 [Compound 1058] | 1000 to 10000 nM |
| O=C(Nc1cccc(N2CCC(N3CCCCC3)CC2)c1)c1ccc(Oc2ccccc2)cc1 [Compound 1049] | 100 to 1000 nM |
| O=C(NCCCN1CCC(N2CCCCC2)CC1)c1ccc(-c2cccc(Cl)c2)cc1 [Compound 1141] | 100 to 1000 nM |
| O=C(NCCCN1CCC(N2CCCCC2)CC1)c1c(F)cc(-c2ccc(C(F)(F)F)cc2)cc1F [Compound 1106] | 100 to 1000 nM |
| O=S(=O)(NCCCN1CCC(N2CCCCC2)CC1)c1ccc(-c2ccc(Cl)cc2)cc1 [Compound 1099] | 100 to 1000 nM |
| O=C(NC1CC(N2CCC(N3CCCCC3)CC2)C1)c1ccc(Oc2ccccc2)cc1 (stereo not drawn) [Compound 1059] | 1000 to 10000 nM |
| O=C(NCCCN1CCC(N2CCCCC2)CC1)c1ccc(-c2ccc(C(F)(F)F)cc2)cc1F [Compound 1153] | 100 to 1000 nM |
| O=C(NCCCN1CCC(N2CCCCC2)CC1)c1ccc(N2CCCCC2)cc1 [Compound 1030] | 1000 to 10000 nM |
| O=C(NCCCN1CCN(Cc2ccccc2)CC1)c1ccc(Oc2ccccc2)cc1 [Compound 1036] | 1000 to 10000 nM |
| O=C(NCCCN1CCC(N2CCCCC2)CC1)c1ccc(-c2ccc([N+](=O)[O-])cc2)cc1 [Compound 1122] | 100 to 1000 nM |
| O=C(c1ccc(Oc2ccccc2)cc1)N1CCC(CN2CCC(N3CCCCC3)CC2)C1 (stereo not drawn) [Compound 1089] | 1000 to 10000 nM |
| CC(C)C1CCN(C2CCN(CCCNC(=O)c3ccc(Oc4ccccc4)cc3)CC2)CC1 [Compound 1069] | 100 to 1000 nM |

same assay, conditions: Hepatitis C virus, Huh7.5, 72 h

| Compound | EC50 |
| --- | --- |
| CCOC(=O)c1c(NC(=O)NCc2c(-n3cccc3)sc3c2CCN(CC)C3)sc2c1CCN(CC)C2 [Compound 26] | < 100 nM |
| CCOC(=O)c1c(NC(=O)NCc2csc3c2CCNC3)sc2c1CCCC2 [Compound 38] | < 100 nM |
| CCN1CCc2c(sc(Br)c2CNC(=O)Nc2sc3c(c2C(=O)OC(C)(C)C)CCC3)C1 [Compound 300] | < 100 nM |
| CCN1CCc2c(sc(-n3cccc3)c2CNC(=O)Nc2sc3c(c2C(=O)NCC(C)C)CCCC3)C1 [Compound 80] | < 100 nM |
| CCN1CCc2c(sc(-n3cccc3)c2CNC(=O)Nc2sc3c(c2C(=O)OC(C)(C)C)CCCCC3)C1 [Compound 115] | < 100 nM |
| CCOC(=O)c1c(NC(=O)NCc2c(Br)sc3c2CCN(CC)C3)sc2c1CCCC2 [Compound 110] | < 100 nM |
| CCN1CCc2c(sc(-n3cccc3)c2CNC(=O)Nc2sc3c(c2C(=O)OC(C)(C)C)CC(C)CC3)C1 (stereo not drawn) [Compound 232] | < 100 nM |
| CCN1CCc2c(sc(-n3cccc3)c2CNC(=O)Nc2sc3c(c2-c2c[nH]cn2)CCCC3)C1 [Compound 95] | > 10000 nM |
| Cc1sc(NC(=O)C(=O)NCc2c(C(F)(F)F)sc3c2CCNC3)c(C(=O)OC(C)(C)C)c1C [Compound 360] | 100 to 1000 nM |
| CCOC(=O)c1c(NC(=O)C(=O)NCc2c(C(F)(F)F)sc3c2CCNC3)sc2c1CCCC2 [Compound 120] | 1000 to 10000 nM |
| CCOC(=O)c1c(NC(=O)NCc2c(-n3cccc3)sc3c2CCN(C)C3)sc2c1CC(C)CC2C (stereo not drawn) [Compound 206] | < 100 nM |
| CCN1CCc2c(sc(-n3cccc3)c2CNC(=O)Nc2sc(C)c(C)c2C(=O)OC(C)(C)C)C1 [Compound 25] | < 100 nM |
| CCOC(=O)c1c(NC(=O)NCc2c(N3CCCC3)sc3c2CCNC3)sc2c1CCCC2 [Compound 125] | 100 to 1000 nM |
| CCN1CCc2c(sc(-n3cccc3)c2CNC(=O)Nc2sc3c(c2C(=O)O)CCCC3)C1 [Compound 16] | > 10000 nM |
| CC(C)(C)OC(=O)c1c(NC(=O)NCc2c(Br)sc3c2CCNC3)sc2c1CCCCC2 [Compound 225] | < 100 nM |
| COC(=O)c1c(NC(=O)NCc2c(Br)sc3c2CCNC3)sc2c1CCCC2 [Compound 128] | < 100 nM |
| CC1Cc2c(sc(NC(=O)NCc3c(Br)sc4c3CCNC4)c2C(=O)OC(C)(C)C)C(C)C1 (stereo not drawn) [Compound 267] | < 100 nM |
| CCN1CCc2c(sc(-n3cccc3)c2CNC(=O)Nc2sc3c(c2C#N)CCCC3)C1 [Compound 5] | > 10000 nM |
| Cc1c(CN(C)C)sc(C(F)(F)F)c1CNC(=O)Nc1sc2c(c1C(=O)OC(C)(C)C)CCCC2 [Compound 134] | < 100 nM |

| Compound | EC50 |
| --- | --- |
| CNCc1sc(-n2cccc2)c(CNC(=O)Nc2sc3c(c2C(=O)OC(C)(C)C)CCCC3)c1C [Compound 158] | 100 to 1000 nM |
| CC1CCCc2sc(NC(=O)NCc3c(C(F)(F)F)sc4c3CCNC4)c(C(=O)OC(C)(C)C)c21 (stereo not drawn) [Compound 265] | < 100 nM |
| CCOC(=O)c1c(NC(=O)NCc2c(-c3ccoc3)sc3c2CCNC3)sc2c1CCCC2 [Compound 339] | < 100 nM |
| CCOC(=O)c1c(NC(=O)NCc2c(-n3cccc3)sc3c2CCN(C)C3)sc2c1CCC(C)C2 (stereo not drawn) [Compound 154] | < 100 nM |
| CCOC(=O)c1c(NC(=O)NC(=O)c2c(-n3c(C)ccc3C)sc3c2CCN(CC)C3)sc2c1CCCC2 [Compound 49] | 1000 to 10000 nM |
| CC(C)N1CCc2c(sc(Br)c2CNC(=O)Nc2sc3c(c2C(=O)OC(C)(C)C)CCCC3)C1 [Compound 187] | < 100 nM |
| CC(C)(C)OC(=O)c1c(NC(=O)NCc2c(-c3ccc(C(=O)O)cc3)sc3c2CCNC3)sc2c1CCCC2 [Compound 257] | 1000 to 10000 nM |
| CCOC(=O)c1c(NC(=O)NCc2ccsc2)sc2c1CCCC2 [Compound 3] | < 100 nM |
| Cc1sc(NC(=O)NCc2c(Br)sc3c2CCNC3)c(C(=O)OC(C)(C)C)c1C [Compound 138] | < 100 nM |
| CC(C)(C)OC(=O)c1c(NC(=O)NCc2c(-n3cccc3)sc3c2CCN(C2CCC2)C3)sc2c1CCCC2 [Compound 260] | < 100 nM |
| CCOC(=O)c1c(NC(=O)c2c(-n3cccc3)sc3c2CCN(CC)C3)sc2c1CCCC2 [Compound 23] | 1000 to 10000 nM |
| Cc1sc(NC(=O)NCc2c(-n3c(C)ccc3C)sc3c2CCNC3)c(C(=O)OC2CCOC2)c1C (stereo not drawn) [Compound 353] | 1000 to 10000 nM |
| CCN1CCc2c(sc(-n3cccc3)c2CNC(=O)Nc2ccccc2C(=O)OC)C1 [Compound 10] | > 10000 nM |
| CC(C)(C)OC(=O)c1c(NC(=O)NCc2c(-n3cccc3)sc3c2CCNC3)sc2c1CCC2 [Compound 277] | < 100 nM |
| CCOC(=O)c1c(NC(=O)NCc2c(C(F)(F)F)sc3c2CCN(C(=N)N)C3)sc2c1CCCC2 [Compound 341] | < 100 nM |
| CCc1sc2c(c1CNC(=O)Nc1sc3c(c1C(=O)OC(C)(C)C)CCCC3)CCNC2 [Compound 181] | < 100 nM |
| CCOC(=O)c1c(NC(=O)NCc2c(-n3cccc3)sc3c2CCN(CC)C3)sc(N2CCOCC2)c1C [Compound 33] | 100 to 1000 nM |
| CN1CCc2c(sc(-n3cccc3)c2CNC(=O)Nc2sc3c(c2C(=O)OC2CCCC2)CCCC3)C1 [Compound 221] | < 100 nM |
| CC1Cc2c(sc(NC(=O)NCc3c(C(F)(F)F)sc4c3CCNC4)c2C(=O)OC(C)(C)C)C(C)C1 (stereo not drawn) [Compound 266] | < 100 nM |

| Compound | EC50 |
| --- | --- |
| CC(C)(C)OC(=O)c1c(NC(=O)NCc2c(-c3ccnc(F)c3)sc3c2CCNC3)sc2c1CCCC2 [Compound 310] | < 100 nM |
| CCOC(=O)c1c(NC(=O)NCc2c(-n3cccc3)sc3c2CCOC3)sc2c1CCCC2 [Compound 48] | < 100 nM |
| CCOC(=O)c1c(NC(=O)NCc2c(C(F)(F)F)sc3c2CCNC3)sc2c1CC(C)CC2 (stereo not drawn) [Compound 194] | < 100 nM |
| CCOC(=O)c1c(NC(=O)NCc2cc(CN(C)C)ccc2F)sc2c1CCCC2 [Compound 108] | 100 to 1000 nM |
| CN(C)CCN1CCc2c(sc(-c3cccc(F)c3)c2CNC(=O)Nc2sc3c(c2C(=O)OC(C)(C)C)CCCC3)C1 [Compound 359] | < 100 nM |
| CCOC(=O)c1c(N/C(=N/C#N)NCc2c(-n3cccc3)sc3c2CCN(CC)C3)sc2c1CCCC2 [Compound 77] | > 10000 nM |
| CCOC(=O)c1c(NC(=O)NCc2c(-n3cccc3)sc3c2CCN(CC)C3)sc2c1CCCC2 [Compound 2] | < 100 nM |
| CCc1sc2c(c1CNC(=O)Nc1sc3c(c1C(=O)OC(C)(C)C)CCC3)CCNC2 [Compound 314] | < 100 nM |
| CCN1CCc2c(sc(C(F)(F)F)c2CNC(=O)Nc2sc(C)c(C)c2C(=O)OC(C)C)C1 [Compound 296] | < 100 nM |
| O=C(NCc1c(-c2ccoc2)sc2c1CCNC2)Nc1sc2c(c1C(=O)OC1CCOC1)CCOC2 (stereo not drawn) [Compound 337] | < 100 nM |
| CC(C)(C)OC(=O)c1c(NC(=O)NCc2c(-c3ccoc3)sc3c2CCNC3)sc2c1CCOC2 [Compound 331] | < 100 nM |
| CN1CCN(C(=O)c2c(NC(=O)NCc3c(-n4cccc4)sc4c3CCNC4)sc3c2CCCC3)CC1 [Compound 84] | 1000 to 10000 nM |
| CCc1sc(NC(=O)NCc2c(C(F)(F)F)sc3c2CCNC3)c(C(=O)OC(C)(C)C)c1C [Compound 270] | < 100 nM |
| CC(C)(C)OC(=O)c1c(NC(=O)NCc2c(-c3ccc(Cl)cc3)sc3c2CCNC3)sc2c1CCCC2 [Compound 179] | < 100 nM |
| CCOC(=O)c1sc2c(c1NC(=O)NCc1c(-n3cccc3)sc3c1CCN(CC)C3)CCCC2 [Compound 109] | 1000 to 10000 nM |
| CCOC(=O)c1c(NC(=O)NCc2c(C(F)(F)F)sc3c2CCN(C(=O)CN)C3)sc2c1CCCC2 [Compound 305] | < 100 nM |
| Cc1noc(-c2c(NC(=O)NCc3c(-n4cccc4)sc4c3CCNC4)sc3c2CCCC3)n1 [Compound 304] | 100 to 1000 nM |
| CCOC(=O)c1c(NC(=O)NCc2c(-n3cccc3)sc3c2CCNC3)sc2c1CCC(F)(F)C2 [Compound 75] | < 100 nM |
| CCOC(=O)c1c(NC(=O)NCc2c(Br)sc3c2CCNC3)sc2c1CCC(C)C2 (stereo not drawn) [Compound 165] | < 100 nM |
